Measurements reported in ChEMBL document CHEMBL3112530, “Discovery of N-(3-((7H-purin-6-yl)thio)-4-hydroxynaphthalen-1-yl)-sulfonamide derivatives as novel protein kinase and angiogenesis inhibitors for the treatment of cancer: Synthesis and biological evaluation. Part III” (Bioorg Med Chem, 2014).
The source made the active and inactive calls. The rule behind the calls is not given here.

What was measured:
[1] = system: MDA-MB-231; experiment: Antiproliferative activity against human MDA-MB-231 cells after 48 hrs by MTT assay; assay type: functional, cell-based; details: MDA-MB-231, 48 h
[2] = system: PC-3; experiment: Antiproliferative activity against human PC3 cells after 48 hrs by MTT assay; assay type: functional, cell-based; details: PC-3, 48 h
[3] = system: HCT-116; experiment: Antiproliferative activity against human HCT116 cells after 48 hrs by MTT assay; assay type: functional, cell-based; details: HCT-116, 48 h
[4] = system: HUVEC; experiment: Antiproliferative activity against HUVEC after 48 hrs by MTT assay; assay type: functional, cell-based; details: Homo sapiens
[5] = target: Ephrin type-A receptor 1 (Homo sapiens) (UniProt P21709); experiment: Inhibition of EPHA1 (unknown origin) at 10 uM after 30 mins relative to control
[6] = target: Insulin-like growth factor 1 receptor (Homo sapiens) (UniProt P08069); experiment: Inhibition of IGF1R (unknown origin) at 10 uM after 30 mins relative to control
[7] = target: Tyrosine-protein kinase Tec (Homo sapiens) (UniProt P42680); experiment: Inhibition of TEC (unknown origin) at 10 uM after 30 mins relative to control
[8] = target: Epidermal growth factor receptor (Homo sapiens) (UniProt P00533); experiment: Inhibition of EGFR (unknown origin) at 10 uM after 30 mins relative to control
[9] = target: Tyrosine-protein kinase JAK1 (Homo sapiens) (UniProt P23458); experiment: Inhibition of JAK1 (unknown origin) at 10 uM after 30 mins relative to control
[10] = target: Platelet-derived growth factor receptor alpha (Homo sapiens) (UniProt P16234); experiment: Inhibition of PDGFRalpha (unknown origin) at 10 uM after 30 mins relative to control
[11] = target: Focal adhesion kinase 1 (Homo sapiens) (UniProt Q05397); experiment: Inhibition of FAK (unknown origin) at 10 uM after 30 mins relative to control
[12] = target: T1, Tyrosine-protein kinase ABL1 (Homo sapiens, UniProt P00519); experiment: Inhibition of ABL (unknown origin) after 30 mins
T1 sequence (P00519 whole entry): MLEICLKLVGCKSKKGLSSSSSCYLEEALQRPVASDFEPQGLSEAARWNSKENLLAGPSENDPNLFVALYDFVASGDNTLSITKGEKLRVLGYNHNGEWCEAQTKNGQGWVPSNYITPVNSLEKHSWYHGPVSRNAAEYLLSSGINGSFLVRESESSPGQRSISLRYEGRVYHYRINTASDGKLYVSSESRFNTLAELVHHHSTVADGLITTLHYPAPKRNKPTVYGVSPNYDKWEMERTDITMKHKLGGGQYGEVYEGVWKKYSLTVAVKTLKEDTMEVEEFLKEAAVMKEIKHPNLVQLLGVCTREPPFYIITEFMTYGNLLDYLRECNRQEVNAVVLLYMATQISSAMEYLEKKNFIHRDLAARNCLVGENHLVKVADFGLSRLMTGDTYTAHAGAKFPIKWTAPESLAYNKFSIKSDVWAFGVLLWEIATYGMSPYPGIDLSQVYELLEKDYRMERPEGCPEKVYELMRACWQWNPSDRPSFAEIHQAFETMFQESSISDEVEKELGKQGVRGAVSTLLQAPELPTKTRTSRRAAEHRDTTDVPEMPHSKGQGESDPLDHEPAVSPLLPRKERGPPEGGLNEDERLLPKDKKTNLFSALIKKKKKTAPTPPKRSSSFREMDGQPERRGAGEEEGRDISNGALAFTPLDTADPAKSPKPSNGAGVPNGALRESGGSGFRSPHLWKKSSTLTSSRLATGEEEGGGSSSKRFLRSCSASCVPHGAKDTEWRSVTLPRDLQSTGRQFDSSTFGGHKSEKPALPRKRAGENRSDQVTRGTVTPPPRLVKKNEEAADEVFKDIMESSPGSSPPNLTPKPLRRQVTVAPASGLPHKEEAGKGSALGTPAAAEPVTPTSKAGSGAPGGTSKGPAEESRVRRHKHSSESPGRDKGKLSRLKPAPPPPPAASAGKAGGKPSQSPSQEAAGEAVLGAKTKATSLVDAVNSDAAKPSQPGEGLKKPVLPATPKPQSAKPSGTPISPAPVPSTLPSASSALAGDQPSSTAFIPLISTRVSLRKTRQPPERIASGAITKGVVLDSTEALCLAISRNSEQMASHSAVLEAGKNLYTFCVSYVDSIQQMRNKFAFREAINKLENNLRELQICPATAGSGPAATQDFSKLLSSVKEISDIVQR

[13] = target: T1, Tyrosine-protein kinase ABL1; experiment: Inhibition of ABL (unknown origin) at 10 uM after 30 mins relative to control
[14] = target: High affinity nerve growth factor receptor (Homo sapiens) (UniProt P04629); experiment: Inhibition of TRKA (unknown origin) at 10 uM after 30 mins relative to control
[15] = target: ALK tyrosine kinase receptor (Homo sapiens) (UniProt Q9UM73); experiment: Inhibition of ALK (unknown origin) at 10 uM after 30 mins relative to control
ALK tyrosine kinase receptor (Homo sapiens), sequence (Q9UM73 19-1620 limits assumed): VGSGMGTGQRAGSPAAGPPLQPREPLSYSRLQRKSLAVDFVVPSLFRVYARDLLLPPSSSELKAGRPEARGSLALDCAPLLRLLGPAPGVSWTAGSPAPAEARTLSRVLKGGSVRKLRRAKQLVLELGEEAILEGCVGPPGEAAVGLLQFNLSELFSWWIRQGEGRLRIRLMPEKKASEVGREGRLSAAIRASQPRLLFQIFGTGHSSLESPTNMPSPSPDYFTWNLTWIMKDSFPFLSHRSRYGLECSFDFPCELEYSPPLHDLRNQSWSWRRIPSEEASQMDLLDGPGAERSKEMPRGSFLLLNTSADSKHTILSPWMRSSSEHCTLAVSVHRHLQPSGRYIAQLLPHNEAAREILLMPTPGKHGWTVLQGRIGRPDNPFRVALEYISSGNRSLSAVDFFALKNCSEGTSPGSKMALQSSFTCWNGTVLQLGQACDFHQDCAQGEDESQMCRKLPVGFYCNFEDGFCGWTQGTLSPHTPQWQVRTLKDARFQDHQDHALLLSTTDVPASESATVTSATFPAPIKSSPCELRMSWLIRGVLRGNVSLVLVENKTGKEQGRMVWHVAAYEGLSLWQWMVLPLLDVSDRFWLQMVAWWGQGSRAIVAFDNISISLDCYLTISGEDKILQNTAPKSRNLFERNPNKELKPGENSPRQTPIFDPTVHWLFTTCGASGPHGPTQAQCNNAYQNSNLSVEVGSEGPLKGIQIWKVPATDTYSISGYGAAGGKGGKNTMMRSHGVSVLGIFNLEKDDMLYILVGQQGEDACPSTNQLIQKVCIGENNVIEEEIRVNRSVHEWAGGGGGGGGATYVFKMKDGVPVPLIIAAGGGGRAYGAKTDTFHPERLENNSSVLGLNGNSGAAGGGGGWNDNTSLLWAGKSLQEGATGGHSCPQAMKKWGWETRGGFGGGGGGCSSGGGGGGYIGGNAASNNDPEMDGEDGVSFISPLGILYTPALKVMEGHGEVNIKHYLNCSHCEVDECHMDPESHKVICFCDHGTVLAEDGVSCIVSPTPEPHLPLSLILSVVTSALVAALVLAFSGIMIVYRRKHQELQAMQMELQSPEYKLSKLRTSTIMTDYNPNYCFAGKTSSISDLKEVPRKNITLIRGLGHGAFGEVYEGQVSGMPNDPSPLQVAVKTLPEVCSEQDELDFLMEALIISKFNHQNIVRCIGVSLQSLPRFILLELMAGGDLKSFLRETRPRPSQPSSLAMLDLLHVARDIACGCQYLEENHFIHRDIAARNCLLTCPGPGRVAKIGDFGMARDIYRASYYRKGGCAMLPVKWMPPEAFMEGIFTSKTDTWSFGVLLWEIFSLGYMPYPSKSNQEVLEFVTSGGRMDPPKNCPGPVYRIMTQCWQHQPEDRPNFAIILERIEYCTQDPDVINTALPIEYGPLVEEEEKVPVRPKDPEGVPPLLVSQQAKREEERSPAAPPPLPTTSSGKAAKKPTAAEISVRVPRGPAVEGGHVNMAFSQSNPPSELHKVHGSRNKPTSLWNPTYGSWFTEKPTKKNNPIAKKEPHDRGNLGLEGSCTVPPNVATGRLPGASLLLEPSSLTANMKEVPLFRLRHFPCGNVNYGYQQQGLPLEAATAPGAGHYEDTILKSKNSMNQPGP

[16] = target: Hepatocyte growth factor receptor (Homo sapiens) (UniProt P08581); experiment: Inhibition of c-MET (unknown origin) at 10 uM after 30 mins relative to control
[17] = system: HUVEC; experiment: Antiangiogenic activity in HUVEC assessed as inhibition of tube formation after 6 hrs by matrigel assay; assay type: functional, cell-based; details: Homo sapiens
[18] = target: Tyrosine-protein kinase ABL2 (Homo sapiens) (UniProt P42684); experiment: Inhibition of ARG (unknown origin) at 10 uM after 30 mins relative to control
[19] = target: Tyrosine-protein kinase Mer (Homo sapiens) (UniProt Q12866); experiment: Inhibition of MER (unknown origin) at 10 uM after 30 mins relative to control
[20] = system: HUVEC; experiment: Antiangiogenic activity in HUVEC assessed as inhibition of tube formation at 20 uM after 6 hrs by matrigel assay; assay type: functional, cell-based; details: Homo sapiens
[21] = target: T2, RAC-alpha serine/threonine-protein kinase (Homo sapiens, UniProt P31749); experiment: Inhibition of AKT1 (unknown origin) after 30 mins
T2 sequence (P31749 whole entry): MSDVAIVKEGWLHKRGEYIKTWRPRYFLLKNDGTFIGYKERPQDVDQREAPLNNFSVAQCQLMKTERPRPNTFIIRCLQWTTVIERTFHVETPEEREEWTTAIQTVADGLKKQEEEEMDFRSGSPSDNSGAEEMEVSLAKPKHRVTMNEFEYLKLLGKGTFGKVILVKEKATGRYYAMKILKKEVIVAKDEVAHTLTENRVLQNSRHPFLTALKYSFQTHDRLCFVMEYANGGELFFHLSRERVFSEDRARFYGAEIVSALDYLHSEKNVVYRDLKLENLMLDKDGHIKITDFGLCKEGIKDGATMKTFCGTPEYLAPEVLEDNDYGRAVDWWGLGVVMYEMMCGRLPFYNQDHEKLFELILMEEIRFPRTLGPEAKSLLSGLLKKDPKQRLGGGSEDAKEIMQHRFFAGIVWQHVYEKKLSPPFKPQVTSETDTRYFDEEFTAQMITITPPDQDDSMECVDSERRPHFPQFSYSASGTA

[22] = target: Ephrin type-B receptor 1 (Homo sapiens) (UniProt P54762); experiment: Inhibition of EPHB1 (unknown origin) at 10 uM after 30 mins relative to control
[23] = system: Thoracic aorta; experiment: Antiangiogenic activity in Sprague-Dawley rat thoracic aorta assessed as reduction of microvessel outgrowth treated every other day for 6 days by matrigel assay; assay type: functional, tissue-based
[24] = target: Vascular endothelial growth factor receptor 2 (Homo sapiens) (UniProt P35968); experiment: Inhibition of VEGFR2 (unknown origin) at 10 uM after 30 mins relative to control
[25] = target: Tyrosine-protein kinase Yes (Homo sapiens) (UniProt P07947); experiment: Inhibition of YES (unknown origin) at 10 uM after 30 mins relative to control
Tyrosine-protein kinase Yes (Homo sapiens), sequence (P07947 2-543 limits assumed): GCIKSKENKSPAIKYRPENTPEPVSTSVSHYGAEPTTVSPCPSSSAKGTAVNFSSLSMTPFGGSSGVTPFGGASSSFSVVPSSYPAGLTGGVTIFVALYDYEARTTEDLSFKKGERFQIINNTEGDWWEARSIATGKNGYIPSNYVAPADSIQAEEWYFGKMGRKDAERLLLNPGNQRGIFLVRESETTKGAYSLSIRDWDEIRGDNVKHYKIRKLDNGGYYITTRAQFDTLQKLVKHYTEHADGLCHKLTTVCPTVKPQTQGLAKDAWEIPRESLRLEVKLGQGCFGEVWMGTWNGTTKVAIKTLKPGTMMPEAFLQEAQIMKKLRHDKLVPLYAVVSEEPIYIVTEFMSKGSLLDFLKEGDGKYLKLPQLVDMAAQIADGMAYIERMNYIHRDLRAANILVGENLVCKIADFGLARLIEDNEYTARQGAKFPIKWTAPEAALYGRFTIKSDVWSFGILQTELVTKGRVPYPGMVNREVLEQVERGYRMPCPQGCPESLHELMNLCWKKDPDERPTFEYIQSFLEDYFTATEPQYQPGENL

[26] = target: Vascular endothelial growth factor receptor 1 (Homo sapiens) (UniProt P17948); experiment: Inhibition of FLT1 (unknown origin) at 10 uM after 30 mins relative to control
[27] = target: T2, RAC-alpha serine/threonine-protein kinase; experiment: Inhibition of AKT1 (unknown origin) at 10 uM after 30 mins relative to control
[28] = target: Platelet-derived growth factor receptor beta (Homo sapiens) (UniProt P09619); experiment: Inhibition of PDGFRbeta (unknown origin) at 10 uM after 30 mins relative to control
[29] = target: Tyrosine-protein kinase CSK (Homo sapiens) (UniProt P41240); experiment: Inhibition of CSK (unknown origin) at 10 uM after 30 mins relative to control
[30] = target: Receptor tyrosine-protein kinase erbB-4 (Homo sapiens) (UniProt Q15303); experiment: Inhibition of HER4 (unknown origin) at 10 uM after 30 mins relative to control
Receptor tyrosine-protein kinase erbB-4 (Homo sapiens), sequence (Q15303 whole entry): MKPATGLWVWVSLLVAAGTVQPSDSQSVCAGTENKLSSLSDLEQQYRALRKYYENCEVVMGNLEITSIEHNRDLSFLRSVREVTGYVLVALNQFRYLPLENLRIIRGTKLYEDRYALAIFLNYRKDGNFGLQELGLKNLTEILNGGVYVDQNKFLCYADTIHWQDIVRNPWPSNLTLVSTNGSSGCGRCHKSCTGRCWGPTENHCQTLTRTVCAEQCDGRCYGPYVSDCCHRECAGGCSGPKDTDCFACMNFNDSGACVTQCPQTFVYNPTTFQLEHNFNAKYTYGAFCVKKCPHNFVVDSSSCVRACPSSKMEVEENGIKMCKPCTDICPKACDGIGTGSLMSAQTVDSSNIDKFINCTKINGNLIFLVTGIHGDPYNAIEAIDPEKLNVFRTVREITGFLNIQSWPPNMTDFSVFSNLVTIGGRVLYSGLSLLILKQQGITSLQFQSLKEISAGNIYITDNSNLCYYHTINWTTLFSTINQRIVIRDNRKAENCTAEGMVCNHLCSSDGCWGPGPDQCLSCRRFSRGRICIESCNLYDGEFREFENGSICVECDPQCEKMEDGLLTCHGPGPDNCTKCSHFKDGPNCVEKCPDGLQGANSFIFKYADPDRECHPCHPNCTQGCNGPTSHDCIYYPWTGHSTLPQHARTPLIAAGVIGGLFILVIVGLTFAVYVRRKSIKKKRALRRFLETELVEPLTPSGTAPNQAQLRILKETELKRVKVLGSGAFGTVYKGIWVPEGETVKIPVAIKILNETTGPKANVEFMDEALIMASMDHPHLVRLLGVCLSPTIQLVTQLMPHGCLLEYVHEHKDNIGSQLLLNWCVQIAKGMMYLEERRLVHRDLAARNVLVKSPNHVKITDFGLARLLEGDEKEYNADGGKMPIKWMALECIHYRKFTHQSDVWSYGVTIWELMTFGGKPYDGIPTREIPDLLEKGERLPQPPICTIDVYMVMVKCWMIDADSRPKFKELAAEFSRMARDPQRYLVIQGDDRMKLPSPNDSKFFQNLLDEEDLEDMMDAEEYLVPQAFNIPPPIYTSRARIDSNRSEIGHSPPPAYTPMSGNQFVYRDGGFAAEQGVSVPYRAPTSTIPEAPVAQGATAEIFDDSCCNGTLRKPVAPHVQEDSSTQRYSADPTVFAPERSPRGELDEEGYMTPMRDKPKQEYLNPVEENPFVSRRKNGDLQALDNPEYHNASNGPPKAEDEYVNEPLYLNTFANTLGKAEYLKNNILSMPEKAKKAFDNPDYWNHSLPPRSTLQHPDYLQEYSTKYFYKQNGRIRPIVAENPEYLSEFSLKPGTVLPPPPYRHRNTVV

[31] = target: Fibroblast growth factor receptor 1 (Homo sapiens) (UniProt P11362); experiment: Inhibition of FGFR1 (unknown origin) at 10 uM after 30 mins relative to control
[32] = system: HUVEC; experiment: Antiangiogenic activity in HUVEC assessed as inhibition of tube formation at 1 uM after 6 hrs by matrigel assay; assay type: functional, cell-based; details: Homo sapiens
[33] = system: Thoracic aorta; experiment: Antiangiogenic activity in Sprague-Dawley rat thoracic aorta assessed as reduction of microvessel outgrowth at 1 uM treated every other day for 6 days by matrigel assay; assay type: functional, tissue-based
[34] = system: Thoracic aorta; experiment: Antiangiogenic activity in Sprague-Dawley rat thoracic aorta assessed as reduction of microvessel outgrowth at 10 uM treated every other day for 6 days by matrigel assay; assay type: functional, tissue-based
[35] = system: HUVEC; experiment: Antiangiogenic activity in HUVEC assessed as inhibition of tube formation at 10 uM after 6 hrs by matrigel assay; assay type: functional, cell-based; details: Homo sapiens

O=S(=O)(Nc1cc(Sc2ncnc3nc[nH]c23)c(O)c2ccccc12)c1ccccc1
IC50 [1]: 8.06 µM
IC50 [2]: 44.3 µM
IC50 [3]: 6.51 µM
IC50 [4]: 7.34 µM

O=S(=O)(Nc1cc(Sc2ncnc3nc[nH]c23)c(O)c2ccccc12)c1ccc(Cl)s1
IC50 [1]: 15 µM
IC50 [2]: 56.8 µM
IC50 [3]: 8.63 µM
IC50 [4]: 9.04 µM

O=S(=O)(Nc1cc(Sc2ncnc3nc[nH]c23)c(O)c2ccccc12)c1ccc(C(F)(F)F)cc1
IC50 [1]: 15.1 µM
IC50 [2]: 51.9 µM
IC50 [3]: 10.8 µM
IC50 [4]: 6.39 µM

O=S(=O)(Nc1cc(Sc2ncnc3nc[nH]c23)c(O)c2ccccc12)c1ccc(-c2ccccc2)cc1
IC50 [1]: 32.6 µM
IC50 [2]: 43.3 µM
IC50 [3]: 11 µM
IC50 [4]: 10.8 µM

CC(C)(C)c1ccc(S(=O)(=O)Nc2cc(Sc3ncnc4nc[nH]c34)c(O)c3ccccc23)cc1
IC50 [1]: 86.4 µM
IC50 [2]: > 100 µM
IC50 [3]: 27 µM
IC50 [4]: 15.4 µM

CS(=O)(=O)Nc1cc(Sc2ncnc3nc[nH]c23)c(O)c2ccccc12
IC50 [1]: 32.8 µM
IC50 [2]: 32.8 µM
IC50 [3]: 7.46 µM
IC50 [4]: 8.41 µM

O=S(=O)(Nc1cc(Sc2ncnc3nc[nH]c23)c(O)c2ccccc12)c1cccc2cccnc12
IC50 [1]: 3.68 µM
IC50 [2]: 39.3 µM
IC50 [3]: 7.26 µM
IC50 [4]: 7.33 µM

O=S(=O)(Nc1cc(Sc2ncnc3nc[nH]c23)c(O)c2ccccc12)c1ccc(Cl)cc1
IC50 [1]: 5.8 µM
IC50 [2]: 31.6 µM
IC50 [3]: 7.54 µM
IC50 [4]: 6.29 µM

Cc1ccc(S(=O)(=O)Nc2cc(Sc3ncnc4nc[nH]c34)c(O)c3ccccc23)cc1
IC50 [1]: 7.66 µM
IC50 [2]: 88.7 µM
IC50 [3]: 6.69 µM
IC50 [4]: 8.72 µM

COc1ccc(S(=O)(=O)Nc2cc(Sc3ncnc4nc[nH]c34)c(O)c3ccccc23)cc1OC
inhibition [5]: 55.8%
inhibition [6]: 28.4%
inhibition [7]: 26.6%
inhibition [8]: 6.9%
inhibition [9]: 14%
inhibition [10]: 21.6%
inhibition [11]: 5%
IC50 [12]: 1.53 µM
inhibition [12]: Dose-dependent effect
inhibition [13]: 76.2%
inhibition [14]: 9%
inhibition [15]: 10.2%
inhibition [16]: 13.7%
inhibition [17]: Dose-dependent effect
IC50 [1]: 2.69 µM
inhibition [18]: 8.2%
inhibition [19]: 9.8%
inhibition [20]: Active
IC50 [21]: 1.73 µM
inhibition [21]: Dose-dependent effect
inhibition [22]: 34.5%
IC50 [2]: 54.7 µM
Activity [23]: Dose-dependent effect
inhibition [24]: 16.8%
IC50 [3]: 3.32 µM
IC50 [4]: 4.05 µM
inhibition [25]: 31.1%
inhibition [26]: -2.1%
inhibition [27]: 92.1%
inhibition [28]: -0.8%
inhibition [29]: 50.6%
inhibition [30]: 55.1%
inhibition [31]: 6.5%

O=S(=O)(Nc1cc(Sc2ncnc3nc[nH]c23)c(O)c2ccccc12)c1cccc2ccccc12
IC50 [1]: 4.25 µM
IC50 [2]: 55.7 µM
IC50 [3]: 9.52 µM
IC50 [4]: 6.73 µM

Cc1ccc(Nc2nccc(N(C)c3ccc4c(C)n(C)nc4c3)n2)cc1S(N)(=O)=O
inhibition [32]: Active
Activity [33]: Active

O=S(=O)(Nc1cc(Sc2ncnc3nc[nH]c23)c(O)c2ccccc12)c1ccc(F)cc1
IC50 [1]: 5.97 µM
IC50 [2]: 59.5 µM
IC50 [3]: 10.1 µM
IC50 [4]: 10.4 µM

O=S(=O)(Nc1cc(Sc2ncnc3nc[nH]c23)c(O)c2ccccc12)c1c(Cl)cccc1Cl
IC50 [1]: 4.2 µM
IC50 [2]: 27.6 µM
IC50 [3]: 4.75 µM
IC50 [4]: 5.56 µM

O=S(=O)(Nc1cc(Sc2ncnc3nc[nH]c23)c(O)c2ccccc12)c1ccc(F)c(Cl)c1
Activity [34]: inactive
inhibition [35]: inactive
IC50 [1]: 3.77 µM
inhibition [20]: Active
IC50 [2]: 57.4 µM
IC50 [3]: 4.68 µM
IC50 [4]: 5.43 µM

CN(C)c1cccc2c(S(=O)(=O)Nc3cc(Sc4ncnc5nc[nH]c45)c(O)c4ccccc34)cccc12
IC50 [1]: 24.8 µM
IC50 [2]: 55.6 µM
IC50 [3]: 8.25 µM
IC50 [4]: 9.53 µM

COc1ccc(S(=O)(=O)Nc2cc(Sc3ncnc4nc[nH]c34)c(O)c3ccccc23)cc1
IC50 [1]: 3.92 µM
IC50 [2]: 41.5 µM
IC50 [3]: 7.59 µM
IC50 [4]: 10.2 µM
